Tests used:
Format in all cases: cell-based, human
A375 melanoma cells [1] = assay: MTT cell viability assay, A375; settings: for IC50: Homo sapiens, A-375, MTT, 24 h, combinations 1:1, mean ± SD; for Therapeutic index (TI): IC50 of HaCat cells/IC50 of A375 cells
Text: (§1) The human cell lines TK10 (human kidney adenocarcinoma), UACC62 (human melanoma) and MCF7 (human breast adenocarcinoma) were obtained from the National Cancer Institute (NCI) as part of a panel widely studied for drug screening and molecular target identification. […] The nontumorigenic human immortalized keratinocyte (HaCaT) cells were a kind donation by the School of Anatomical Sciences, Faculty of Health Sciences, University of the Witwatersrand, South Africa. […] All reagents were of analytical grade and were obtained from Merck (Darmstadt, Germany) unless stated otherwise. Cells were cultured in Dulbecco’s modified essential medium (DMEM; Hyclone, GE healthcare, South Logan, UT, USA) containing 10% fetal bovine serum (FBS), 1% penicillin/streptomycin, 1% 200 mM L-Glutamine and 1% nonessential amino acids (Lonza, Basel, Switzerland) at 37°C in a humidified atmosphere of 5% CO2. Stock solutions of the compounds were prepared in dimethyl sulfoxide (DMSO). All subsequent dilutions were prepared in serum-free DMEM and vehicle controls were included in all experiments
(§2) The growth inhibitory effects of the compounds were tested in the 3-cell line panel consisting of TK10 (renal), UACC62 (melanoma) and MCF7 (breast) cancer cells by Sulforhodamine B (SRB) assay. […] Compounds prepared in DMSO were tested at 0.01–100 µM serial dilutions to establish initial inhibitory concentrations. […] After 24 h exposure to compounds, growth medium was removed, cells rinsed twice with 1 ml of phosphate buffered saline (PBS) and 100 µl fresh serum-free medium containing 5 mg/ml MTT solution was added MTT solution was prepared fresh for each analysis). Cells were then incubated for 4 h at 37°C, after which the MTT was removed and substituted with 100 µl dimethyl sulfoxide (DMSO) to dissolve the formazan crystals for an h at 37°C. After incubation, cell viability was determined using a microplate reader (BioTek®, Vermont, USA) at an excitation wavelength of 560 nm and emission wavelength of 630 nm with DMSO measured as a blank. Cell viability was expressed as a percentage relative to the untreated control, which is assumed to be 100% viable. For a positive control, cells were treated with 0.01% Triton-X 100 (Sigma-Aldrich, St Louis, MO, USA) for a period of 4 h. Using the MTT assay data, IC50 values were calculated using GraphPad Prism 8. Data were normalized to the positive (alleged to be 0% viable) and negative controls (presumed to be 100% viable), followed by the log-transformation of the concentration values. […] A crude therapeutic index (fold decrease in IC50 value) was calculated as the IC50 of the noncancerous cell-line/IC50 of the cancerous cell line. […] Drug interactions were evaluated for synergism, additivity or antagonism using multiple drug effect analysis, based on the median-principle. Cells were treated with the drug combinations for 24 h and analyzed. The CompuSyn (ComboSyn, Inc. NJ, USA) software package was used to generate the median-effect plots and combination index plots. […] All experiments were performed at least in triplicate and repeated independently.
(§3) Next, the quantitative colorimetric MTT assay was used to determine in vitro cell viability with A375 (melanoma) and HaCat (nonmalignant keratinocyte) cells. […] The IC50 was used to determine a crude therapeutic index (fold increase or decline in IC50).

[2] = test system: HaCat normal keratinocytes; assay: MTT cell viability assay, HaCat; settings: Homo sapiens, HaCaT, 24 h, combinations 1:1, mean ± SD, read-out: HaCat IC50
Text: as §1, §2, §3

A375 melanoma cells [3] = assay: LDH release membrane integrity assay, A375; settings: for A375 (% LDH release): compounds at their IC50 concentrations, 24 h, combinations 1:1, relative to maximum release; for Fold increase in LDH release: selectivity toward melanoma cell membranes, A375 vs HaCat; for LDH release, result in words: IC50 concentrations, 24 h (Table 3, Figure 6C)
Text: In order to determine cell membrane integrity, the CytoTox-ONE™ Homogeneous Membrane Integrity Assay (Promega, Madison, WO, USA) was employed. This fluorometric assay measures the release of LDH from cells with damaged cell membranes. […] The manufacturer’s instructions were followed to determine the fluorescence at an excitation wavelength of 560 nm and an emission wavelength of 590 nm. In order to calculate the percentage cytotoxicity, the average fluorescent values of the background medium were subtracted from all average fluorescent values of the experimental samples and the positive control. Cytotoxicity is expressed as a percentage relative to the positive control, which is assumed to be responsible for 100% LDH release. The fold increase in LDH release was taken as the indication of the selectivity toward melanoma cell membranes, calculated as the […]. All experiments were performed at least in triplicate and independently repeated. Statistical significant differences were calculated with one-way ANOVA.
Results are expressed relative to the untreated control and the maximum release sample, which was set as having 0% and 100% LDH release respectively. The LDH released from the nonmalignant HaCat cells and the A375 melanoma cells was then used to deduce the selectivity of the compounds against melanoma cell membranes.

Row | SMILES | IC50 (A375 melanoma cells [1]) | Therapeutic index (TI) (A375 melanoma cells [1]) | CC50 [2] | A375 (% LDH release) (A375 melanoma cells [3]) | Fold increase in LDH release (A375 melanoma cells [3]) | LDH release, result in words (A375 melanoma cells [3])
1 | CC(C)=CCC/C(C)=C/CN1CCN([C@@H]2O[C@@H]3O[C@@]4(C)CC[C@H]5[C@H](C)CC[C@@H]([C@H]2C)[C@@]35OO4)CC1 [Geranylpiperazine-DHA 6, geranylpiperazine-DHA] | 46.9 ± 0.89 µM | 2.2 | 106 ± 3.99 µM | 68 ± 0.91% | 4.0 | 
2 | C[C@@H]1CC[C@H]2[C@@H](C)C(=O)O[C@@H]3O[C@@]4(C)CC[C@@H]1[C@]32OO4 [Artemisinin 2, artemisinin] | 150 ± 3.61 µM | 2.5 | 381 ± 5.36 µM | 24 ± 0.96% | 1.3 | did not significantly increase the release of LDH
3 | C[C@H]1[C@H](N2CCS(=O)(=O)CC2)O[C@@H]2O[C@@]3(C)CC[C@H]4[C@H](C)CC[C@@H]1[C@@]24OO3 [Artemisone 4, artemisone] | 95.7 ± 2.31 µM | 2.8 | 268.8 ± 1.97 µM | 27 ± 0.81% | 1.4 | did not significantly increase the release of LDH
4 | CC(C)=CCC/C(C)=C/CC/C(C)=C/CN1CCN([C@@H]2O[C@@H]3O[C@@]4(C)CC[C@H]5[C@H](C)CC[C@@H]([C@H]2C)[C@@]35OO4)CC1 [Farnesylpiperazine-DHA 7, farnesylpiperazine-DHA] | 32.6 ± 1.08 µM | 2.1 | 70.6 ± 1.07 µM | 57 ± 1.21% | 3.1 | 
